Test results taken from patent US7855213B2 (AstraZeneca AB, priority 2006, dated 2010).
Structures can show the parent of a compound that is named as a salt.

The molecules below were run against T1, human β-Secretase (Homo sapiens, UniProt P56817) (assay: TR-FRET assay).
T1 construct: The soluble part of the human β-Secretase (AA 1-AA 460) was cloned; made in house
Type: biochemical

T1 sequence (P56817 22-460): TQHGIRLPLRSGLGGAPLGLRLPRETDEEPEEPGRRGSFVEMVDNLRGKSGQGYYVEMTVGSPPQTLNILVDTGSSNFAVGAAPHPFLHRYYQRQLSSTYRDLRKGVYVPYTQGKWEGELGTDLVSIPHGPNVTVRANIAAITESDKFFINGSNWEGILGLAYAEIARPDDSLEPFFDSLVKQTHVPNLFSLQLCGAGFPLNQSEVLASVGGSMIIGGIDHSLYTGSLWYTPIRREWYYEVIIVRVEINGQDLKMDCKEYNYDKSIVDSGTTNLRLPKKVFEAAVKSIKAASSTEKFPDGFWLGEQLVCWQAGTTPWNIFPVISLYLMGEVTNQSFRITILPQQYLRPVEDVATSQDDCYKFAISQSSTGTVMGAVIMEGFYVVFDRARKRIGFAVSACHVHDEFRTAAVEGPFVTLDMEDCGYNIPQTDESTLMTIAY

First: COc1ccc(C2(c3cccc(-c4ccsc4C=O)c3)N=C(N)c3ccccc32)cc1 (centres unmarked) [Example 48, 3-{3-[3-Amino-1-(4-methoxyphenyl)-1H-isoindol-1-yl]phenyl}thiophene-2-carbaldehyde 1.5 acetate]
Second: COc1ccc(C2(c3cccc(-c4ccc(C)o4)c3)N=C(N)c3ccccc32)cc1 (centres unmarked) [Example 54, 1-(4-Methoxyphenyl)-1-[3-(5-methyl-2-furyl)phenyl]-1H-isoindol-3-amine 0.5 acetate]
The IC50 of the first is 3.3-fold lower: 300 nM for the first, 1000 nM for the second. The first is the more potent here.

Going from `NC1=NC(c2ccncc2)(c2cccc(-c3cncnc3)c2)c2cc(Cl)ccc21` (centres unmarked) [Example 129, 6-Chloro-1-pyridin-4-yl-1-(3-pyrimidin-5-ylphenyl)-1H-isoindol-3-amine] to `NC1=NC(c2ccncc2)(c2cccc(-c3cncnc3)c2)c2ccccc21` (centres unmarked) [Example 45, 3-Pyridin-4-yl-3-(3-pyrimidin-5-yl-phenyl)-3H-isoindol-1-ylamine trifluoroacetate], the IC50 rises from 85 nM to 501 nM (5.9-fold). The first is the more potent here.

Going from `NC1=NC(c2ccncc2)(c2cccc(-c3cccnc3F)c2)c2cc(F)ccc21` (centres unmarked) [Example 86, 6-Fluoro-1-[3-(2-fluoropyridin-3-yl)phenyl]-1-pyridin-4-yl-1H-isoindol-3-amine] to `NC1=NC(c2ccncc2)(c2cccc(-c3cccnc3F)c2)c2ccccc21` (centres unmarked) [Example 42, 3-[3-(2-Fluoro-pyridin-3-yl)-phenyl]-3-pyridin-4-yl-3H-isoindol-1-ylamine trifluoroacetate], the IC50 rises from 47 nM to 110 nM (2.3-fold).

`COc1ccc(C2(c3cccc(-c4cccnc4F)c3)N=C(N)c3ccccc32)cc1C` (centres unmarked) [Example 24, 3-[3-(2-Fluoro-pyridin-3-yl)-phenyl]-3-(4-methoxy-3-methyl-phenyl)-3H-isoindol-1-ylamine trifluoroacetate] and `NC1=NC(c2cccc(-c3cccnc3F)c2)(c2ccnc(Cl)c2)c2ccccc21` (centres unmarked) [Example 121, 1-(2-Chloropyridin-4-yl)-1-[3-(2-fluoropyridin-3-yl)phenyl]-1H-isoindol-3-amine] are within 1.5-fold of each other in IC50: 54 nM for the first, 80 nM for the second.

`COc1cncc(-c2cccc(C3(c4ccncc4)N=C(N)c4ccccc43)c2)c1` (centres unmarked) [Example 46, 3-[3-(5-Methoxy-pyridin-3-yl)-phenyl]-3-pyridin-4-yl-3H-isoindol-1-ylamine trifluoroacetate] and `COc1ccc(C2(c3cccc(-c4cncc(OC)c4)c3)N=C(N)c3ccccc32)cc1` (centres unmarked) [Example 12, 3-(4-Methoxy-phenyl)-3-[3-(5-methoxy-pyridin-3-yl)-phenyl]-3H-isoindol-1-ylamine trifluoroacetate] are within 1.5-fold of each other in IC50: 98 nM for the first, 68 nM for the second.

First: COc1cncc(-c2cccc(C3(c4ccc(OS(C)(=O)=O)cc4)N=C(N)c4ccccc43)c2)c1 (centres unmarked) [Example 39, Methanesulfonic acid 4-{3-amino-1-[3-(5-methoxy-pyridin-3-yl)-phenyl]-1H-isoindol-1-yl}-phenyl ester trifluoroacetate]
Second: COc1ccc(C2(c3cccc(-c4cncc(OC)c4)c3)N=C(N)c3ccc(F)cc32)cc1 (centres unmarked) [Example 81, 6-Fluoro-1-(4-methoxyphenyl)-1-[3-(5-methoxypyridin-3-yl)phenyl]-1H-isoindol-3-amine]
The IC50 of the first is 13-fold higher: 350 nM for the first, 26 nM for the second.

`COc1ccc(C2(c3cccc(-c4cccc(OC)c4)c3)N=C(N)c3ccc(F)cc32)cc1` (centres unmarked) [Example 80, 6-Fluoro-1-(3′-methoxybiphenyl-3-yl)-1-(4-methoxyphenyl)-1H-isoindol-3-amine] and `COc1ccc(C2(c3cccc(-c4cccc(OC)c4)c3)N=C(N)c3ccccc32)cc1` (centres unmarked) [Example 2, 3-(3′-Methoxy-biphenyl-3-yl)-3-(4-methoxy-phenyl)-3H-isoindol-1-ylamine trifluoroacetate] are within 1.5-fold of each other in IC50: 84 nM for the first, 110 nM for the second.

Going from `COc1cccc(-c2cc(C3(c4ccncc4F)N=C(N)c4ccccc43)ccc2F)c1F` (centres unmarked) [Example 101, 1-(2′,6-Difluoro-3′-methoxybiphenyl-3-yl)-1-(3-fluoropyridin-4-yl)-1H-isoindol-3-amine] to `NC1=NC(c2ccc(F)c(-c3cccnc3F)c2)(c2ccncc2F)c2ccccc21` (centres unmarked) [Example 76, 1-[4-Fluoro-3-(2-fluoropyridin-3-yl)phenyl]-1-(3-fluoropyridin-4-yl)-1H-isoindol-3-amine 1.5 acetate], the IC50 falls from 230 nM to 100 nM (2.3-fold). The second is the more potent here.

`COc1cccc(-c2cccc(C3(c4ccc5c(c4)OCO5)N=C(N)c4ccccc43)c2)c1` (centres unmarked) [Example 33, 3-Benzo[1,3]dioxol-5-yl-3-(3′-methoxy-biphenyl-3-yl)-3H-isoindol-1-ylamine trifluoroacetate] and `NC1=NC(c2cccc(-c3cccnc3)c2)(c2ccc3c(c2)OCO3)c2ccccc21` (centres unmarked) [Example 28, 3-Benzo[1,3]dioxol-5-yl-3-(3-pyridin-3-yl)-3H-isoindol-1-ylamine trifluoroacetate] are within 1.5-fold of each other in IC50: 1330 nM for the first, 1610 nM for the second.

Compared with `NC1=NC(c2cccc(OS(=O)(=O)C(F)(F)F)c2)(c2ccc(F)c(-c3cncnc3)c2)c2ccccc21` (centres unmarked) [Example 134, 3-[3-Amino-1-(4-fluoro-3-pyrimidin-5-ylphenyl)-1H-isoindol-1-yl]phenyl trifluoromethanesulfonate], `COc1ccc(C2(c3ccc(F)c(-c4cncnc4)c3)N=C(N)c3ccccc32)cc1C` (centres unmarked) [Example 127, 1-(4-Fluoro-3-pyrimidin-5-ylphenyl)-1-(4-methoxy-3-methylphenyl)-1H-isoindol-3-amine] is 11-fold lower in IC50: 347 nM for the first, 33 nM for the second. The second is the more potent here.

Going from `CC(C)Cn1cc(-c2cccc(C3(c4ccncc4)N=C(N)c4ccccc43)c2)cn1` (centres unmarked) [Example 62, 1-[3-(1-Isobutyl-1H-pyrazol-4-yl)phenyl]-1-pyridin-4-yl-1H-isoindol-3-amine 0.25] to `Cc1ccc(-c2cccc(C3(c4ccncc4)N=C(N)c4ccccc43)c2)o1` (centres unmarked) [Example 63, 1-[3-(5-Methyl-2-furyl)phenyl]-1-pyridin-4-yl-1H-isoindol-3-amine acetate], the IC50 falls from greater than 10000 nM to 1100 nM. The second is the more potent here.

Going from `N#Cc1ccc(C2(c3cccc(-c4cncnc4)c3)N=C(N)c3ccccc32)cc1` (centres unmarked) [Example 58, 4-[3-Amino-1-(3-pyrimidin-5-ylphenyl)-1H-isoindol-1-yl]benzonitrile 0.25 acetate] to `CC(C)c1cc(C2(c3cccc(-c4cncnc4)c3)N=C(N)c3ccccc32)ccn1` (centres unmarked) [Example 114, 1-(2-Isopropylpyridin-4-yl)-1-(3-pyrimidin-5-ylphenyl)-1H-isoindol-3-amine], the IC50 falls from 710 nM to 300 nM (2.4-fold).

`COc1cc(OS(C)(=O)=O)cc(-c2cccc(C3(c4ccc(OC)c(C)c4)N=C(N)c4ccccc43)c2)c1` (centres unmarked) [Example 25, Methanesulfonic acid 3′-[3-amino-1-(4-methoxy-3-methyl-phenyl)-1H-isoindol-1-yl]-5-methoxy-biphenyl-3-yl ester trifluoroacetate] and `COc1cccc(-c2cccc(C3(c4ccc(OC)c(C)c4)N=C(N)c4ccccc43)c2)c1` (centres unmarked) [Example 20, 3-(3′-Methoxy-biphenyl-3-yl)-3-(4-methoxy-3-methyl-phenyl)-3H-isoindol-1-ylamine trifluoroacetate] are within 1.5-fold of each other in IC50: 86 nM for the first, 101 nM for the second.

Going from `NC1=NC(c2ccncc2)(c2ccc(F)c(-c3cncc(F)c3)c2)c2ccccc21` (centres unmarked) [Example 69, 1-[4-Fluoro-3-(5-fluoropyridin-3-yl)phenyl]-1-pyridin-4-yl-1H-isoindol-3-amine 0.75 acetate] to `NC1=NC(c2ccc(F)c(-c3cncc(F)c3)c2)(c2ccncc2F)c2ccccc21` (centres unmarked) [Example 75, 1-[4-Fluoro-3-(5-fluoropyridin-3-yl)phenyl]-1-(3-fluoropyridin-4-yl)-1H-isoindol-3-amine 1.5 acetate], the IC50 rises from 99 nM to 280 nM (2.8-fold). The first is the more potent here.

`CCc1cc(C2(c3cccc(-c4cccnc4F)c3)N=C(N)c3ccccc32)ccn1` (centres unmarked) [Example 112, 1-(2-Ethylpyridin-4-yl)-1-[3-(2-fluoropyridin-3-yl)phenyl]-1H-isoindol-3-amine] and `COc1ccc(F)c(-c2cccc(C3(c4ccncc4)N=C(N)c4ccccc43)c2)c1` (centres unmarked) [Example 103, 1-(2′-Fluoro-5′-methoxybiphenyl-3-yl)-1-pyridin-4-yl-1H-isoindol-3-amine] are within 1.5-fold of each other in IC50: 96 nM for the first, 110 nM for the second.

First: COc1ccc(C#N)c(-c2cccc(C3(C)N=C(N)c4ccccc43)c2)c1 (centres unmarked) [Example 93, 3′-(3-Amino-1-methyl-1H-isoindol-1-yl)-5-methoxybiphenyl-2-carbonitrile acetate]
Second: COc1ccc(C2(c3ccc(O)c(-c4cccc(OC)c4)c3)N=C(N)c3ccccc32)cc1 (centres unmarked) [Example 4, 5-[3-Amino-1-(4-methoxy-phenyl)-1H-isoindol-1-yl]-3′-methoxy-biphenyl-2-ol trifluoroacetate]
The IC50 of the first is 65-fold higher: 4350 nM for the first, 67 nM for the second. The second is the more potent here.

Going from `COc1ccc(C2(c3ccc(OS(=O)(=O)C(F)(F)F)c(-c4cccc(OC)c4)c3)N=C(N)c3ccccc32)cc1` (centres unmarked) [Example 3, Trifluoro-methanesulfonic acid 5-[3-amino-1-(4-methoxy-phenyl)-1H-isoindol-1-yl]-3′-methoxy-biphenyl-2-yl ester trifluoroacetate] to `COc1cncc(-c2cccc(C3(c4ccc(OC)c(C)c4)N=C(N)c4ccccc43)c2)c1` (centres unmarked) [Example 21, 3-(4-Methoxy-3-methyl-phenyl)-3-[3-(5-methoxy-pyridin-3-yl)-phenyl]-3H-isoindol-1-ylamine trifluoroacetate], the IC50 falls from 12000 nM to 42 nM (290-fold).

Compared with `NC1=NC(c2cccc(-c3cncnc3)c2)(c2ccc3c(c2)OCCO3)c2ccccc21` (centres unmarked) [Example 18, 3-(2,3-Dihydrobenzo[b][1,4]dioxin-6-yl)-3-(3-(pyrimidin-5-yl)phenyl)-3H-isoindol-1-amine trifluoroacetate], `COc1ccc(C2(c3cccc(-c4cccnc4)c3)N=C(N)c3ccc(F)cc32)cc1` (centres unmarked) [Example 79, 6-Fluoro-1-(4-methoxyphenyl)-1-(3-pyridin-3-ylphenyl)-1H-isoindol-3-amine] is 11-fold lower in IC50: 593 nM for the first, 54 nM for the second.

First: COc1ncc(C2(c3cccc(-c4cccc(OC)c4F)c3)N=C(N)c3ccccc32)cn1 (centres unmarked) [Example 109, 1-(2′-Fluoro-3′-methoxybiphenyl-3-yl)-1-(2-methoxypyrimidin-5-yl)-1H-isoindol-3-amine]
Second: NC1=NC(c2cccc(OS(=O)(=O)c3c(F)cccc3F)c2)(c2cc(Cl)nc(Cl)c2)c2ccccc21 (centres unmarked) [Example 133, 3-[3-Amino-1-(2,6-dichloropyridin-4-yl)-1H-isoindol-1-yl]phenyl 2,6-difluorobenzenesulfonate]
The IC50 of the first is 4.3-fold lower: 750 nM for the first, 3240 nM for the second.
